Laboratory results published in patent US7781460B2, “Substituted indazoles as inhibitors of phosphodiesterase type-IV” (Ranbaxy Laboratories Limited, priority 2005, dated 2010).

Assays:
[1] = system: TNF-α release from LPS-stimulated human peripheral blood mononuclear cells; test: Cell based assay for TNF-α release (LPS stimulation of human PBMNC's); conditions: PBMC; human PBMN cells, LPS 1 μg/ml, incubated overnight, ELISA; read-out: IC50, inhibition of TNF-α release
Experimental: Cell based Assay for TNF-α Release
Method of Isolation of Human Peripheral Blood Mononuclear Cells:
Human whole blood was collected in vacutainer tubes containing heparin or EDTA as an anti coagulant. The blood was diluted (1:1) in sterile phosphate buffered saline and 10 ml. was carefully layered over 5 ml Ficoll Hypaque gradient (density 1.077 g/ml) in a 15 ml conical centrifuge tube. The sample was centrifuged at 3000 rpm for 25 minutes in a swing-out rotor at room temperature. After centrifugation, interface of cells were collected, diluted at least 1:5 with PBS and washed three times by centrifugation at 2500 rpm for 10 minutes at room temperature. The cells were resuspended in serum free RPMI 1640 medium at a concentration of 2 million cells/ml. Alternatively whole blood was used.
LPS Stimulation of Human PBMNC's:
PBMN cells (0.1 ml; 2 million/ml) were co-incubated with 20 μl of compound (final DMSO concentration of 0.2%) for 10 min in a flat bottom 96 well microtiter plate. Compounds were dissolved in DMSO initially and diluted in medium for a final concentration of 0.2% DMSO. LPS (1 μg/ml, final concentration) was then added at a volume of 10 μl per well. After 30 min, 20 μl of fetal calf serum (final concentration of 10%) was added to each well. Cultures were incubated overnight at 37° C. in an atmosphere of 5% CO2 and 95% air. Supernatant were then removed and tested by ELISA for TNF-α release using a commercial kit (e.g. BD Biosciences). For whole blood, the plasma samples were diluted 1:20 for ELISA. The level of TNF-α in treated wells was compared with the vehicle treated controls and inhibitory potency of compound was expressed as IC50 values calculated by using Graph pad prism.

| IC50 [1] [µM] | melting point [°C] | SMILES |
| --- | --- | --- |
| 4.2 to 10 | – | Cc1nn(C2CCCC2)c2cc(C3=NOC(C)(C#N)C3)ccc12 (stereo not shown) [Compound 2, 3-(1-Cyclopentyl-3-methyl-1H-indazol-6-yl)-5-methyl-4,5-dihydroisoxazole-5-carbonitrile] |
| 4.2 to 10 | – | CCc1nn(C2CCCC2)c2cc(C3=NOC(C)(C#N)C3)ccc12 (stereo not shown) [Compound 3, 3-(1-Cyclopentyl-3-ethyl-1H-indazol-6-yl)-5-methyl-4,5-dihydroisoxazole-5-carbonitrile] |
| – | 154 to 155 | CCc1nn(C2CCCC2)c2cc(C3=NOC(C)(c4noc(-c5ccc(Cl)cc5)n4)C3)ccc12 (stereo not shown) [Compound 11, 6-{5-[5-(4-Chlorophenyl)-1,2,4-oxadiazol-3-yl]-5-methyl-4,5-dihydroisoxazol-3-yl}-1-cyclopentyl-3-ethyl-1H-indazole] |
| 4.2 to 10 | – | Cc1nn(C2CCCC2)c2cc(C3=NOC(C)(c4nc(-c5cc(F)ccc5F)no4)C3)ccc12 (stereo not shown) [Compound 23, 1-Cyclopentyl-6-{5-[3-(2,5-difluorophenyl)-1,2,4-oxadiazol-5-yl]-5-methyl-4,5-dihydroisoxazol-3-yl}-3-methyl-1H-indazole] |
| 4.2 to 10 | – | CCc1nn(C2CCCC2)c2cc(C3=NOC(C)(c4nc(-c5cc(Cl)ccc5Cl)no4)C3)ccc12 (stereo not shown) [Compound 31, 1-Cyclopentyl-6-{5-[3-(2,5-dichlorophenyl)-1,2,4-oxadiazol-5-yl]-5-methyl-4,5-dihydroisoxazol-3-yl}-3-ethyl-1H-indazole] |
| 4.2 to 10 | – | CCc1nn(C2CCCC2)c2cc(C3=NOC(C)(c4nc(-c5cc(F)ccc5F)no4)C3)ccc12 (stereo not shown) [Compound 32, 1-Cyclopentyl-6-{5-[3-(2,5-difluorophenyl)-1,2,4-oxadiazol-5-yl]-5-methyl-4,5-dihydroisoxazol-3-yl}-3-ethyl-1H-indazole] |
| 1.2 | – | COc1ccc(C2CNC(=O)C2)cc1OC1CCCC1 (stereo not shown) [rolipram, reference compound] |
